Test results as given in patent publication US20130015204A1, “SINGLE-USE CONTAINERS AND USES THEREOF” (priority 2009, published 2013).
“Also recorded” adds a separate entry of the source. Where two headings read alike, the source gives them in different places.

What was measured:
[1] = Long term storage stability studies: HPLC, solutions stored at RT and 4° C. for up to 4 months; conditions: for Time to achieve significant falls at 4° C.: aqueous solution stored at 4° C.; for Time to achieve significant falls at RT: aqueous solution stored at RT; for Long term storage stability of vitamin solution: stored at RT or 4° C., 4 month period
Method: Heat was applied by different methods, including placing the solution in a test tube in a bath of hot water (80° C. or 100° C.) for 15 minutes, or by mixing a concentrated solution with hot water or hot coffee (80° C. or 100° C. for both) for an equivalent time. Long term stability studies were carried out by storing individual vitamin solutions at room temperature and at 4° C. for up to 4 months and sampling these solutions at various intervals. Degradation was assessed by the change in peak area of the HPLC peak specific to each particular compound.
Vitamin solutions were prepared as for the Heat Stability Studies.
Replicate aliquots of these solutions were placed in four 15 mL Falcon tubes. Two of these tubes were stored on a shelf at room temperature (RT) in the laboratory and two in the cold room (4° C.).
At 0, 0.5, 1, 1.5, 2, 3.5, and 4 months, samples were taken from each vial for
HPLC analysis. The high concentration vitamin samples (vitamins BI, B3, B5, and B6) were diluted to 1:250 with Milli-Q water before injection and the low concentration vitamin samples (vitamins B2, B7, B9, and B12) were injected undiluted.
Samples from each of the duplicate solutions described above were injected onto the HPLC in duplicate. HPLC conditions were as described above.
Duplicate injections of the two samples were made and the mean of the four results was reported.
(§1) The percentage change in individual vitamin concentrations relative to the control sample was calculated as: 100×(Atest−Acontrol)/Acontrol, where Atest and Acontrol are peak area ratios (analyte/intemal standard) for the test and control solutions respectively.
For the heat stability studies, statistical analysis was performed by Students t-test. For the storage stability studies, statistical analysis was performed by univariate ANOVA (General Linear Model). All statistical analyses were performed with SPSS 16.

[2] = Heat stability studies: HPLC peak area change after heating, hot water or hot coffee; assay type: physicochemical; conditions: for Effect of heating solutions on vitamin concentration: heating to either 80° C. or 100° C. for 15 minutes; for % Deviation: vs control; for Vitamin degradation, Heat 80° C.: solution heated 80° C.; for Vitamin degradation, Heat 100° C.: solution heated 100° C.; for Effect of dilution with hot water and coffee on vitamin concentration: dilution with hot water or hot coffee, 80° C. or 100° C.; for Vitamin degradation, Water 80° C.: diluted with hot water 80° C.; for Vitamin degradation, Water 100° C.: diluted with hot water 100° C.
Method: Vitamins were divided into two groups, depending on their solubility. “High concentration” vitamins were sufficiently soluble to be detected by the. HPLC analysis after 1/250 dilution. “Low concentration” vitamins were not sufficiently soluble and could not be detected after 1/250 dilution and therefore a different procedure was adopted for these compounds as described below.
High concentration vitamin (B1, B3, B5, B6) solutions
Solutions were prepared immediately before use in duplicate, using four different methods, described below: a. Dilute 1 mL of each standard solution to 250 mL with Milli-Q water at room temperature (control sample) […]
b. […] Then take a 1 mL sample from each tube and dilute to 250 mL with Milli-Q water at room temperature. c. Dilute 1 mL of each solution to 250 mL with hot water (80° C. or 100° C.). Leave for 15 minutes, then take a sample and cool immediately to room temperature. d. Dilute 1 mL of each solution to 250 mL with hot coffee (80° C. or 100° C.). Leave for 15 minutes, then take a sample and cool immediately to room temperature.
Low Concentration Vitamin (B2, B7, B9, B12) Solutions
Standard solutions were freshly prepared with Milli-Q water as described above. The test solutions below were then immediately prepared in duplicate: a. Use undiluted (control sample)
HPLC conditions were as described above.
as §1
All statistical analyses were performed with SPSS 16.

[3] = water; cited from earlier work
[4] = up to 4 months, — = no significant fall
[5] = greatest percentage change over the 4 month testing period, † non-significant, * significant, ‡ transient at 2 weeks
[6] = low concentration vitamin solution, undiluted, heated to 80° C., 15 minutes
[7] = low concentration vitamin solution, undiluted, heated to 100° C., 15 minutes
[8] = storage at RT and 4° C. for up to 4 months
[9] = high concentration vitamin solution, matrix coffee: diluted 1/250 with hot coffee 80° C., 15 minutes
[10] = high concentration vitamin solution, matrix coffee: diluted 1/250 with hot coffee 100° C., 15 minutes
[11] = high concentration vitamin solution, matrix heated: tube in hot water 80° C., 15 minutes
[12] = high concentration vitamin solution, matrix heated: tube in hot water 100° C., 15 minutes
[13] = high concentration vitamin solution, matrix hot water: diluted 1/250 with hot water 80° C., 15 minutes
[14] = high concentration vitamin solution, matrix hot water: diluted 1/250 with hot water 100° C., 15 minutes

Compound | Time to achieve significant falls at 4° C. [1, 4] [weeks] | Vitamin degradation, Storage 4° C. [1, 5] | Vitamin degradation, Storage RT [1, 5] | Effect of heating solutions on vitamin concentration [2] | % Deviation [2, 6] [%] | % Deviation [2, 7] [%] | Comment (long term storage stability) [1, 8] | Effect of dilution with hot water and coffee on vitamin concentration [2] | % Deviation [2, 9] [%] | % Deviation [2, 10] [%] | % Deviation [2, 11] [%] | % Deviation [2, 12] [%] | % Deviation [2, 13] [%] | % Deviation [2, 14] [%] | Long term storage stability of vitamin solution [1] | Vitamin degradation, Heat 80° C. ([2]; summary, 15 minutes) | Vitamin degradation, Heat 100° C. ([2]; summary, 15 minutes) | Aq. solubility [3] [mg/mL] | further results
Cc1cc2nc3c(=O)[nH]c(=O)nc-3n(C[C@H](O)[C@H](O)[C@H](O)CO)c2cc1C [Vitamin B2, riboflavin] | 2 | −33.6% * | −24.7% * | not significantly affected | 1.5 | 2.85 |  |  |  |  |  |  |  |  | varying levels of degradation; also recorded: little further degradation; also recorded: Significant degradation |  |  |  | Time to achieve significant falls at RT [1, 4]: 2 weeks; Degradation after 2 weeks at 4° C. ([1]; storage at 4° C.): 33.6%; Comment: Falls sustained to ([1]; storage at RT and 4° C.): 4 months; Degradation after 2 weeks at RT ([1]; storage at RT): 24.7%
NC(=O)c1cccnc1 [Vitamin B3, niacinamide] |  | † −1.1% | † −1.8% | not affected |  |  | Stable for 4 months | Statistically significant reductions | −3.72 | −3.62 | −0.24 | −0.86 | 0.33 | 0.4 | stable; also recorded: no statistically significant degradation | †† (non-significant reductions in vitamin concentrations of <2% in response to heat treatment) | †† (non-significant reductions in vitamin concentrations of <2% in response to heat treatment) |  | Vitamin degradation, Water 80° C. ([2]; summary, 15 minutes): †† (non-significant reductions in vitamin concentrations of <2% in response to heat treatment); Vitamin degradation, Water 100° C. ([2]; summary, 15 minutes): †† (non-significant reductions in vitamin concentrations of <2% in response to heat treatment)
O=C(O)CCCC[C@@H]1SC[C@@H]2NC(=O)N[C@@H]21 [Vitamin B7, biotin] |  | −27.4% ‡ | −15.9% ‡ | not significantly affected | −0.47 | −1.89 | Stable for 4 months |  |  |  |  |  |  |  | varying levels of degradation; also recorded: no statistically significant degradation; also recorded: transient reductions | †† (non-significant reductions in vitamin concentrations of <2% in response to heat treatment) | †† (non-significant reductions in vitamin concentrations of <2% in response to heat treatment) | 0.22 | 
Cc1ncc(C[n+]2csc(CCO)c2C)c(N)n1 [Vitamin B1, Thiamine] |  | † −2.8% | † −2.4% | not affected |  |  | Stable for 4 months | unaffected | 0.46 | 0.58 | 0.33 | 0.22 | −0.04 | −0.26 | stable; also recorded: no statistically significant degradation |  |  | 500 | 

More lines, main results first:

Time to achieve significant falls at 4° C. [1, 4] [weeks] | Vitamin degradation, Storage 4° C. [1, 5] | Vitamin degradation, Storage RT [1, 5] | Effect of heating solutions on vitamin concentration [2] | % Deviation [2, 6] [%] | % Deviation [2, 7] [%] | Comment (long term storage stability) [1, 8] | Effect of dilution with hot water and coffee on vitamin concentration [2] | % Deviation [2, 9] [%] | % Deviation [2, 10] [%] | % Deviation [2, 11] [%] | % Deviation [2, 12] [%] | % Deviation [2, 13] [%] | % Deviation [2, 14] [%] | Compound | Long term storage stability of vitamin solution [1] | Vitamin degradation, Heat 80° C. ([2]; summary, 15 minutes) | Vitamin degradation, Heat 100° C. ([2]; summary, 15 minutes) | Aq. solubility [3] [mg/mL] | further results
 | † −1.4% | † −1.2% | not significantly affected | −0.14 | −0.18 |  |  |  |  |  |  |  |  | cyanocobalamin [Vitamin B12] | stable; also recorded: no statistically significant degradation | †† (non-significant reductions in vitamin concentrations of <2% in response to heat treatment) | †† (non-significant reductions in vitamin concentrations of <2% in response to heat treatment) | 0.0125 | 
 |  |  | not affected |  |  |  | unaffected | −0.63 | −1.47 | 0.05 | −0.28 | 1.39 | 1.64 | Cc1ncc(CO)c(CO)c1O.Cl [Vitamin B6, pyroxidine hydrochloride] |  |  |  |  | Comment (long term storage stability) [1]: Stable for 4 months; Vitamin degradation, Storage 4° C. [1]: † −2.5%; Vitamin degradation, Storage RT [1]: † −1.5%
2 | −13.7% * | −100.0% * | Statistically significant reductions | −1.92 | −2.26 | At RT, undetectable |  |  |  |  |  |  |  | Nc1nc2ncc(CNc3ccc(C(=O)N[C@@H](CCC(=O)O)C(=O)O)cc3)nc2c(=O)[nH]1 [Vitamin B9, folic acid] | varying levels of degradation; also recorded: Significant degradation |  |  | 0.0016 | Time to achieve significant falls at RT [1, 4]: 2 weeks; Comment: At 4° C., significant change only at ([1]; storage at 4° C.): 2 weeks.; Further fall in levels at 1 month ([1]; storage at 4° C., 1 month, beyond the fall at 2 weeks): 5.7%; Degradation after 2 weeks at 4° C. ([1]; storage at 4° C.): 8.0%; Maximum degradation on storage at 4° C. ([1]; storage at 4° C., 4 months): 13.7%; Degradation after 2 weeks at RT ([1]; storage at RT): 10.0%; Level on storage at RT after the 2 week sample ([1]; storage at RT, sampling times from 1 month to 4 months): undetectable; also recorded: complete elimination
2 | −3.9% * | −3.3% * | Statistically significant reductions |  |  |  | unaffected | 1.78 | 0.31 | −2.78 | −2.27 | −0.77 | −1.15 | calcium (+)-pantothenate [Vitamin B5] | varying levels of degradation; also recorded: significant degradation |  |  |  | Time to achieve significant falls at RT ([1]; up to 4 months): 1.5 months; Comment: Falls sustained to ([1]; storage at RT and 4° C.): 4 months; Comment: size of falls at all times ([1]; storage at RT and 4° C., up to 4 months): < 5%; Degradation at any time for either temperature ([1]; storage at RT or 4° C., entire 4 month test period): less than 4%; Vitamin degradation, Coffee 80° C. ([2]; summary, diluted with hot coffee 80° C., 15 minutes): †† (non-significant reductions in vitamin concentrations of <2% in response to heat treatment); Vitamin degradation, Coffee 100° C. ([2]; summary, diluted with hot coffee 100° C., 15 minutes): †† (non-significant reductions in vitamin concentrations of <2% in response to heat treatment); Vitamin degradation, Water 80° C. ([2]; summary, 15 minutes): †† (non-significant reductions in vitamin concentrations of <2% in response to heat treatment); Vitamin degradation, Water 100° C. ([2]; summary, 15 minutes): †† (non-significant reductions in vitamin concentrations of <2% in response to heat treatment)
